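Cultured in 96-well plates, cells were exposed to test compound for 48 hours across five concentrations. Here, GI50 denotes the concentration required for 50% inhibition of growth. TGI is the concentration that stops growth completely.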 Where a SMILES comes first, the peptide text is derived from it.
How the values were obtained:
Experiment in all cases: NCI-60 cell line screen, 48 h
OVCAR-3 ovarian = system: OVCAR-3 ovarian
LOX IMVI melanoma = system: LOX IMVI melanoma
HCT-15 colon = system: HCT-15 colon
786-0 renal = system: 786-0 renal
HOP-92 NSCLC = system: HOP-92 NSCLC
A498 renal = system: A498 renal
CCRF-CEM leukemia = system: CCRF-CEM leukemia
SF-539 CNS = system: SF-539 CNS
SF-268 CNS = system: SF-268 CNS
UACC-257 melanoma = system: UACC-257 melanoma
SF-295 CNS = system: SF-295 CNS
OVCAR-5 ovarian = system: OVCAR-5 ovarian
RPMI-8226 leukemia = system: RPMI-8226 leukemia
UACC-62 melanoma = system: UACC-62 melanoma
IGROV1 ovarian = system: IGROV1 ovarian
MOLT-4 leukemia = system: MOLT-4 leukemia
NCI-H460 lung = system: NCI-H460 lung
OVCAR-4 ovarian = system: OVCAR-4 ovarian
MDA-MB-231 breast = system: MDA-MB-231 breast
BT-549 breast = system: BT-549 breast
T-47D breast = system: T-47D breast
SR leukemia = system: SR leukemia
KM12 colon = system: KM12 colon
K-562 leukemia = system: K-562 leukemia
HS 578T breast = system: HS 578T breast
SK-MEL-2 melanoma = system: SK-MEL-2 melanoma
SK-OV-3 ovarian = system: SK-OV-3 ovarian
SNB-19 CNS = system: SNB-19 CNS
A549 NSCLC = system: A549 NSCLC
CAKI-1 renal = system: CAKI-1 renal
SK-MEL-5 melanoma = system: SK-MEL-5 melanoma
MALME-3M melanoma = system: MALME-3M melanoma
TK-10 renal = system: TK-10 renal
HOP-62 NSCLC = system: HOP-62 NSCLC
COLO 205 colon = system: COLO 205 colon
NCI-H226 lung = system: NCI-H226 lung
M14 melanoma = system: M14 melanoma
NCI-H522 lung = system: NCI-H522 lung
SNB-75 CNS = system: SNB-75 CNS
HCC-2998 colon = system: HCC-2998 colon
HL-60(TB) leukemia = system: HL-60(TB) leukemia
MDA-MB-435 = system: MDA-MB-435
ACHN renal = system: ACHN renal
SK-MEL-28 melanoma = system: SK-MEL-28 melanoma
SW-620 colon = system: SW-620 colon
HT29 colon = system: HT29 colon
NCI-H23 lung = system: NCI-H23 lung
OVCAR-8 ovarian = system: OVCAR-8 ovarian
RXF 393 renal = system: RXF 393 renal
DU-145 prostate = system: DU-145 prostate
U251 CNS = system: U251 CNS
UO-31 renal = system: UO-31 renal
HCT-116 colon = system: HCT-116 colon
NCI/ADR-RES ovarian = system: NCI/ADR-RES ovarian
EKVX NSCLC = system: EKVX NSCLC
MCF7 breast = system: MCF7 breast
SN12C renal = system: SN12C renal
PC-3 prostate = system: PC-3 prostate

## CCC(C)C1NC(=O)C(CCCCN)NC(=O)C(CCCCN)NC(=O)C(CC(C)C)NC(=O)C(CCCCN)NC(=O)C(C(C)CC)NC(=O)C(C(C)C)NC(=O)C(C(C)CC)NC(=O)C(CCCCN)NC(=O)C(CCCCN)NC(=O)C(C)NC(=O)C(CCCCN)NC(=O)C(CC(C)C)NC1=O (stereo unspecified) (cyclo(AKKIVIKLKKILK); configuration not given here)
OVCAR-3 ovarian
  GI50: 1620 nM
  TGI: 3630 nM
LOX IMVI melanoma
  GI50: 1730 nM
  TGI: 3200 nM
HCT-15 colon
  GI50: 1600 nM
  TGI: 3270 nM
786-0 renal
  GI50: 1800 nM
  TGI: 3640 nM
HOP-92 NSCLC
  GI50: 1270 nM
  TGI: 3240 nM
A498 renal
  GI50: 1660 nM
  TGI: 3840 nM
CCRF-CEM leukemia
  GI50: 2150 nM
  TGI: 9300 nM
SF-539 CNS
  GI50: 2050 nM
  TGI: 4380 nM
SF-268 CNS
  GI50: 2590 nM
  TGI: 11300 nM
UACC-257 melanoma
  GI50: 2420 nM
  TGI: 7570 nM
SF-295 CNS
  GI50: 1140 nM
  TGI: 2520 nM
OVCAR-5 ovarian
  GI50: 2330 nM
  TGI: 8180 nM
RPMI-8226 leukemia
  GI50: 1110 nM
  TGI: 3740 nM
UACC-62 melanoma
  GI50: 1270 nM
  TGI: 2940 nM
IGROV1 ovarian
  GI50: 1970 nM
  TGI: 6180 nM
MOLT-4 leukemia
  GI50: 1700 nM
  TGI: 5290 nM
NCI-H460 lung
  GI50: 1850 nM
  TGI: 4280 nM
OVCAR-4 ovarian
  GI50: 1280 nM
  TGI: 13400 nM
MDA-MB-231 breast
  GI50: 1720 nM
  TGI: 4250 nM
BT-549 breast
  GI50: 1790 nM
  TGI: 3960 nM
T-47D breast
  GI50: 1690 nM
  TGI: 6700 nM
SR leukemia
  GI50: 1860 nM
  TGI: 5020 nM
KM12 colon
  GI50: 2550 nM
  TGI: 8090 nM
K-562 leukemia
  GI50: 1310 nM
  TGI: 5470 nM
HS 578T breast
  GI50: 2000 nM
  TGI: 5660 nM
SK-MEL-2 melanoma
  GI50: 2060 nM
  TGI: 4880 nM
SK-OV-3 ovarian
  GI50: 2090 nM
  TGI: 5880 nM
SNB-19 CNS
  GI50: 2930 nM
  TGI: 14000 nM
A549 NSCLC
  GI50: 2260 nM
  TGI: 9640 nM
CAKI-1 renal
  GI50: 1560 nM
  TGI: 3760 nM
SK-MEL-5 melanoma
  GI50: 1010 nM
  TGI: 2190 nM
MALME-3M melanoma
  GI50: 1450 nM
  TGI: 3300 nM
TK-10 renal
  GI50: 1870 nM
  TGI: 4630 nM
HOP-62 NSCLC
  GI50: 1760 nM
  TGI: 3970 nM
COLO 205 colon
  GI50: 1740 nM
  TGI: 3650 nM
NCI-H226 lung
  GI50: 1210 nM
  TGI: 3370 nM
M14 melanoma
  GI50: 1600 nM
  TGI: 3460 nM
NCI-H522 lung
  GI50: 1740 nM
  TGI: 4700 nM
SNB-75 CNS
  GI50: 1720 nM
  TGI: 4350 nM
HCC-2998 colon
  GI50: 2650 nM
  TGI: 8520 nM
HL-60(TB) leukemia
  GI50: 2420 nM
  TGI: 6930 nM
MDA-MB-435
  GI50: 1770 nM
  TGI: 3800 nM
ACHN renal
  GI50: 2360 nM
  TGI: 6840 nM
SK-MEL-28 melanoma
  GI50: 1970 nM
  TGI: 4610 nM
SW-620 colon
  GI50: 1750 nM
  TGI: 3590 nM
HT29 colon
  GI50: 2930 nM
  TGI: 10800 nM
NCI-H23 lung
  GI50: 704 nM
  TGI: 4450 nM
OVCAR-8 ovarian
  GI50: 1730 nM
  TGI: 6400 nM
RXF 393 renal
  GI50: 1490 nM
  TGI: 3010 nM
DU-145 prostate
  GI50: 2990 nM
  TGI: 10700 nM
U251 CNS
  GI50: 1590 nM
  TGI: 3250 nM
UO-31 renal
  GI50: 1380 nM
  TGI: 2740 nM
HCT-116 colon
  GI50: 1460 nM
  TGI: 3070 nM
NCI/ADR-RES ovarian
  GI50: 1070 nM
  TGI: 5610 nM
EKVX NSCLC
  GI50: 1330 nM
  TGI: 6000 nM
MCF7 breast
  GI50: 1870 nM
  TGI: 5980 nM
SN12C renal
  GI50: 1940 nM
  TGI: 6460 nM
PC-3 prostate
  GI50: 779 nM
  TGI: 8520 nM

From PubChem BioAssay (NCI)
